Results taken from patent publication US20140221490A1, “METHODS OF TREATING PAIN” (Hospira, Inc., priority 2011, published 2014).
Values joined by “and” are separate entries in the source; they are usually repeats but may differ in a detail not shown here. Identical values can stand only once. “Also recorded” adds a separate entry of the source.

Experiments:
[1] = tested on: acute moderate to severe pain after orthopedic surgery; test: Multiple-dose randomized double-blind active- and placebo-controlled trial after orthopedic surgery: efficacy (SPID, pain relief, rescue morphine, patient global evaluation); format: in vivo, human
Method: Patients were randomly assigned to diclofenac, ketorolac, or placebo (2:1:1 ratio).
Randomization was stratified by risk group at baseline. The groups were high-risk, non-high-risk, or higher-weight, which was greater than 210 lbs., or 95 kg. Randomization was also stratified by anticipated stay between a long stay, which was longer than 24 hours, versus a shorter stay. The high-risk patients weighed less than 110 lbs.
The diclofenac formulation was Dyloject™. […] Adverse events (adverse effects) were recorded between surgery and randomization, not just after baseline, in order to distinguish treatment-emergent adverse events.
Patients were encouraged to wait at least 30 minutes after study drug initiation to request morphine.
Patients assessed their pain at baseline and at specified time points through the next 24 hours. Those who remained at the site longer assessed their pain every three hours until discharged. Patients returned for follow-up 5-9 days after baseline, and they received a follow-up telephone call 30-37 days after baseline.
Efficacy analyses were conducted using Statistical Analysis Software®, and unless otherwise noted refer to the intent-to-treat population. The analysis of area under the pain intensity difference curve, pain intensity difference, area under the pain relief curve, patient global evaluation, and amount of rescue medication were based on analysis of covariance (ANCOVA) models, with treatment and center as factors and baseline pain as a covariate. Confidence intervals were based on the pooled standard deviation obtained from an ANCOVA model. Treatment differences were tested with linear contrasts.
All testing of statistical significance was 2-sided unless the test performed was inherently 1-sided. […] The area under the pain relief curve was analyzed similarly.
The proportion of patients attaining at least 30% reduction in pain intensity and the frequency of rescue medication use were analyzed with Cochran-Mantel-Haenszel tests, with center as a stratification variable.
For area under the curve calculations, evaluations after the administration of rescue medication or after withdrawal due to adverse events (adverse effects) or lack of efficacy were imputed in accordance with prespecified rules. For post hoc analyses of pain intensity, an even more conservative and simplified set of imputation rules was applied.
This was a multicenter, multiple-dose, multiple-day, randomized, double-blind, active- and placebo-controlled, parallel-group study.
Assignments were made according to a computer-generated random-number code. Randomization was also stratified by risk cohort (high-risk, non-high-risk, or high-weight [≧95 kg]) at baseline (see FIG. 10), and by anticipated long stay (>24 hours) versus shorter stay, resulting in six strata within the randomization schedule.
Patients in all treatment groups received a bolus IV injection every 6 hours until discharge. […] All study drugs were blinded to the investigator and the patient; dose levels of the individual study treatments were not blinded.
Patients were encouraged to wait at least 30 minutes after study drug initiation to request morphine, to allow primary study drug to begin to exert analgesic effects but were never denied.
The primary efficacy measure was the sum of pain intensity differences (SPID) over five intervals: 0-24, 0-48, 0-72, 0-96, and 0-120 hours which was calculated by summing the difference in pain intensity (by a 0-100 visual analog scale) from baseline at designated timepoints.

[2] = cited from earlier work

## O=C(c1ccccc1)c1ccc2n1CCC2C(=O)O (stereo not drawn) [Ketorolac, ketorolac tromethamine]
[1]; 0-24, 0-48, 0-72, 0-96, 0-120 hours, P<0.0001
  total pain relief vs placebo: significantly better
[1]; all time intervals 0-24 to 0-120 hours, P<0.0001
  mean sum of pain intensity differences (SPID) vs placebo: significantly better; also recorded: significantly greater
[1]; at last assessment
  patients rating their drug as “very good” or “excellent” (patient global evaluation): 57.6%
[1]; diclofenac 50 mg, ketorolac 30 mg, all time intervals, P<0.05
  SPID scores vs placebo, higher-weight group: better with both diclofenac 50 mg and ketorolac 30 mg compared with placebo
[1]; dose by risk cohort, IV every 6 hours
  patients achieving clinically meaningful pain reduction (≧30% reduction in intensity): 75%
[1]; elderly patients, low dose (diclofenac 18.75 mg, ketorolac 15 mg)
  amount of morphine used: 14.9 mg
[1]; human, in vivo
  median time from administration of study drug to administration of rescue medication: 137.0 min and 137 min
  time at which pain intensity difference first significantly differed from placebo (onset of analgesia): 30 min
[1]; over the first five days
  total rescue morphine requirement: 18.1 mg
[2]
  Vd, volume of distribution: 0.21 L/kg
[2]; plasma
  Prot. bind., drug fraction bound to protein (fP): 99%
[2]; read-out: Cmax, maximum drug concentration in plasma, based on the drug's pharmacokinetics and administration of a normal drug dose
  Cmax: 1800 nM
